Here are results for four compounds from publication PMC11903690 (Scientific Reports, 2025).

Series [1] concerns sphingomyelin on the plasma membrane in Vero E6 cells. The class given is cell-based. As to conditions: 5 μM, 30 min, versus control (DMSO).
In series [2] the test system is high fat diet-induced obesity mice models. As to conditions: oral intake; cited from earlier work.
Series [3] deals with SARS-CoV-2 mediated cell-to-cell fusion. It is filed as cell-based. Conditions: 0.8 to 25 μM; 24 h.
The test system of series [4] is SARS-CoV-2 (WK-521, ancestral strain). The series can be described thus: SARS-CoV-2 inhibition MTT assay in Vero E6/TMPRSS2 cells. The class given is cell-based. As to conditions: for EC50: Severe acute respiratory syndrome coronavirus 2, VeroE6/TMPRSS2; for Selectivity index: between EC50 and CC50, WK-521, Vero E6/TMPRSS2 cells.
A further series in a line: in vitro. As to conditions: African green monkey.

By EC50 is commonly meant the concentration giving half of the maximal effect.

Regarding `O=C(CCCCCCCCc1ccc(O)c(O)c1)c1c(O)cccc1O` [Compound 1, Malabaricone C], in series [1], the “fluorescence intensity of EGFP-NT-Lys on the plasma membrane (clustered SM)” value is recorded as “lower than that of the control” and the “fluorescence intensity of EqtII-EGFP (dispersed SM)” value is “almost no difference”. For the same compound, in series [2], the “efficacies in high fat diet-induced obesity mice” value was “reducing weight gain, improving glucose tolerance, and reducing hepatic steatosis”. Also, the “inhibition of cell fusion (yellow hypertrophic cells)” value in series [3] is listed as “increased in a dose-dependent manner”. Moreover, in series [4], the response was half-maximal at 1.5 µM (EC50) and the Selectivity index is given as 9.7. In “in vitro”, this compound gave a CC50 of 14 µM.
As for `CCCCCC/C=C\CCCCCCCc1cccc(O)c1C(=O)O` [Ginkgolic acid], the concentration giving a half-maximal response (EC50) in series [4] was determined as 7.9 µM.
In series [4], `CC(C)C(=O)OC[C@H]1O[C@@H](n2ccc(NO)nc2=O)[C@H](O)[C@@H]1O` [Molnupiravir] gave an EC50 of 0.15 µM and a Selectivity index of 33.8. Moreover, the CC50 in the series “in vitro” stood at 5.3 µM.
In the case of `CCC(CC)COC(=O)[C@H](C)N[P@](=O)(OC[C@H]1O[C@@](C#N)(c2ccc3c(N)ncnn23)[C@H](O)[C@@H]1O)Oc1ccccc1` [Remdesivir], the concentration for a half-maximal effect (EC50) in series [4] amounted to 0.5 µM. Moreover, the CC50 in the series “in vitro” was more than 10 µM.
